How the values were obtained:
[1] = tested on: AD38 cells; assay: Activity of test compounds on viral production from AD38 cells (qPCR viral load); format: cell-based, HBV; parameters: key: (+) depicting meets criteria for significant activity; (++) depicting exceeds criteria; conditions: 5 days, supernatant qPCR
Experimental: AD38 cells grown in a 175 cm flash with Growth Medium (DMEM/F12 (1:1) (cat#SH30023.01, Hyclone, 1× Pen/step (cat#: 30-002-CL, Mediatech, Inc), 10% FBS (cat#: 101, Tissue Culture Biologics), 250 μg/mL G418 (cat#: 30-234-CR, Mediatech, Inc), 1 μg/mL Tetracycline (cat#: T3325, Teknova)) were detached with 0.25% trypsin. Tetracycline-free treatment medium (15 mL DMEM/F12 (1:1) (cat#SH30023.01, Hyclone, 1× Pen/step (cat#: 30-002-CL, Mediatech, Inc), with 2% FBS, Tet-system approved (cat#: 631106, Clontech) were then added to mix and spun at 1300 rpm for 5 min. Pelleted cells were then re-suspended/washed with 50 mL of 1×PBS 2 times and 10 mL treatment medium one time. AD38 cells were then re-suspended with 10 mL of treatment medium and counted. Wells of a collagen coated 96-well NUNC microtiter plate were seeded at 50,000/well in 180 μL of treatment medium, and 20 μL of either 10% DMSO (Control) or a 10× solution of test compound in 10% DMSO in treatment media was added for as final compound concentration 1, 3, or 10 μM (1.0% final [DMSO]) and plates were incubated for 5 days at 37° C.
Subsequently viral load production was assayed by quantitative PCR of the core sequence. Briefly, 5 μL of clarified supernatant was added to a PCR reaction mixture that contained forward primers HBV-f 5′-[…]-3′, Reverse primers HBV-r 5′-[…]-3′ and Fluorescent TaqMan™ Probes HBV-probe 5′-FAM/[…]/ZEN/[…]/31ABkFQ-3′ in Quanta Biosciences PerfeCTa® qPCR Toughmix®, and was subsequently on an Applied Biosystems VIIA7 in a final volume of 20 μL. The PCR mixture was incubated at 45° C. for 5 minutes, then 95° C. for 10 min, followed by 40 cycles of 10 seconds at 95° C. and 20 seconds at 60° C. Viral load was quantitated against known standards by using ViiA™ 7 Software. Viral load in the supernatant from wells with treated cells were compared against viral load in supernatant from DMSO control wells (≥3 per plate). In Table 4, concentrations of test compound causing reductions in viral load greater than at least 3 standard deviations from the DMSO controls across all plates were considered active, with (+) depicting meets criteria for significant activity, and (++) depicting exceeds criteria.

[2] = tested on: HBV Cp; assay: Capsid assembly assay (fluorescence quenching); conditions: 10 μM compound, control reactions with no drug show 25±5% assembly

Structure (SMILES) | reduction in viral load vs DMSO controls ([1]; test concentration 1 μM) | reduction in viral load vs DMSO controls ([1]; test concentration 3 μM) | reduction in viral load vs DMSO controls ([1]; test concentration 10 μM) | % Capsid formation at 24 h (10 μM) [2] [%]
COc1ccc(S(=O)(=O)N2CCN(c3nc(C)cc(Nc4ccc(Br)cc4)n3)CC2)cc1 [compound 34] | ++ | ++ | ++ | 96
Cc1ccc(Nc2cc(C)nc(N3CCN(S(=O)(=O)c4ccc(C)cc4)CC3)n2)cc1 [compound 1] | – | ++ | ++ | 95
